Experimental data from US20080058426A1, “COMPOSITION AND METHOD FOR TREATING PSORIASIS” (priority 2006, published 2008).

Assay: Safety of THC in the psoriasis clinical study
Conditions: human, in vivo
Source text: • Study Duration: 45 days • Population: 10 psoriasis affected subjects • Intervention: THC formulated as a cream with pharmaceutically acceptable carriers applied topically three times a day for 45 days.
The primary objective in this study was to determine the efficacy and safety of the THC cream. The parameters to detect the efficacy and safety of the medication included relief from the characteristic symptoms of psoriasis like itching, erythema, scaling, infiltration, and the extent of clearance of psoriasis lesions.

Q: With Tetrahydrocurcuminoids [THC] as the substance, how does the Toxic side effects read?
A: devoid of toxic side effects
